Results: US20230278972A1, “SUBSTITUTED HALOALKYL SULFONANILIDE HERBICIDES” (FMC Corporation, priority 2020, published 2023)

Tests used:
Format in all cases: in vivo
[1] = tested on: galium (catchweed bedstraw, Galium aparine); assay: Test A postemergence, galium; details: Postemergence, 0 to 100 scale (0 no effect, 100 complete control)
Procedure, shortened: (§1)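 Preemergence: seeded pots of loam plus sand received a directed soil spray. Postemergence: seedlings at one to two leaves, 2 to 10 cm high, were oversprayed. Each compound was formulated in a non-phytotoxic solvent mix that included a surfactant.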

[2] = tested on: Ryegrass, Italian (Italian ryegrass, Lolium multiflorum); assay: Test A postemergence, Ryegrass, Italian; details: Postemergence, 0 to 100 scale (0 no effect, 100 complete control)
Procedure, shortened: (§2)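 Greenhouse pot test in a loam–sand blend; compounds delivered in a non-phytotoxic solvent carrying a surfactant, applied either as a directed spray to soil at seeding or over seedlings 2 to 10 cm high with one to two leaves.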

[3] = tested on: barnyardgrass (Echinochloa crus-galli); assay: Test A preemergence, barnyardgrass; details: Preemergence; for Barnyardgrass plant response rating: 125 g ai/ha, visual injury on 0 to 100 scale (0 no effect, 100 complete control), approximately 10 days; for Plant response rating, Barnyardgrass: 0 to 100 scale (0 no effect, 100 complete control)
Procedure, shortened: as §2

kochia (Bassia scoparia) [4] = assay: Test A postemergence, kochia; details: Postemergence, 0 to 100 scale (0 no effect, 100 complete control)
Procedure, shortened: as §2

[5] = tested on: Ryegrass, Italian (Italian ryegrass, Lolium multiflorum); assay: Test A preemergence, Ryegrass, Italian; details: Preemergence; for Ryegrass, Italian plant response rating: 125 g ai/ha, visual injury on 0 to 100 scale (0 no effect, 100 complete control), approximately 10 days; for Plant response rating, Ryegrass, Italian: 0 to 100 scale (0 no effect, 100 complete control)
Procedure, shortened: as §2

[6] = tested on: barnyardgrass (Echinochloa crus-galli); assay: Test A postemergence, barnyardgrass; details: Postemergence, 0 to 100 scale (0 no effect, 100 complete control)
Procedure, shortened: as §1

[7] = tested on: blackgrass (Alopecurus myosuroides); assay: Test A postemergence, blackgrass; details: Postemergence, 0 to 100 scale (0 no effect, 100 complete control)
Procedure, shortened: as §2

corn (Zea mays) = assay: Test A postemergence, corn; details: Postemergence, 0 to 100 scale (0 no effect, 100 complete control)
Procedure, shortened: as §2

[8] = tested on: Foxtail, Giant (giant foxtail, Setaria faberi); assay: Test A preemergence, Foxtail, Giant; details: Preemergence; for Foxtail, Giant plant response rating: 125 g ai/ha, visual injury on 0 to 100 scale (0 no effect, 100 complete control), approximately 10 days; for Plant response rating, Foxtail, Giant: 0 to 100 scale (0 no effect, 100 complete control)
Procedure, shortened: as §2

[9] = tested on: pigweed (Amaranthus retroflexus); assay: Test A preemergence, pigweed; details: for Pigweed plant response rating: 125 g ai/ha, visual injury on 0 to 100 scale (0 no effect, 100 complete control), approximately 10 days; for Plant response rating, Pigweed: 0 to 100 scale (0 no effect, 100 complete control)
Procedure, shortened: as §1

[10] = tested on: ragweed (common ragweed, Ambrosia artemisiifolia); assay: Test A postemergence, ragweed; details: Postemergence, 0 to 100 scale (0 no effect, 100 complete control)
Procedure, shortened: as §2

[11] = tested on: Foxtail, Giant (giant foxtail, Setaria faberi); assay: Test A postemergence, Foxtail, Giant; details: Postemergence, 0 to 100 scale (0 no effect, 100 complete control)
Procedure, shortened: as §2

[12] = tested on: pigweed (Amaranthus retroflexus); assay: Test A postemergence, pigweed; details: Postemergence, 0 to 100 scale (0 no effect, 100 complete control)
Procedure, shortened: as §2

kochia (Bassia scoparia) [13] = assay: Test A preemergence, kochia; details: Preemergence; for Kochia plant response rating: 125 g ai/ha, visual injury on 0 to 100 scale (0 no effect, 100 complete control), approximately 10 days; for Plant response rating, Kochia: 0 to 100 scale (0 no effect, 100 complete control)
Procedure, shortened: as §2

[14] = tested on: wheat (Triticum aestivum); assay: Test A postemergence, wheat; details: Postemergence, 0 to 100 scale (0 no effect, 100 complete control)
Procedure, shortened: as §1

[15] = 125 g ai/ha, visual injury approx. 10 days
[16] = 500 g ai/ha, visual injury, approx. 10 days
[17] = 1000 g ai/ha, visual injury, approx. 10 days

Compound | Plant response rating, Galium [1, 15] | Plant response rating, Galium [1, 16] | Plant response rating, Ryegrass, Italian [2, 15] | Plant response rating, Ryegrass, Italian [2, 16] | Barnyardgrass plant response rating [3] | Plant response rating, Barnyardgrass ([3]; 500 g ai/ha) | Plant response rating, Kochia (kochia (Bassia scoparia) [4]; [15]) | Plant response rating, Kochia (kochia (Bassia scoparia) [4]; [16]) | Ryegrass, Italian plant response rating [5] | Plant response rating, Ryegrass, Italian ([5]; 500 g ai/ha) | Plant response rating, Barnyardgrass [6, 15] | Plant response rating, Barnyardgrass [6, 16] | Plant response rating, Blackgrass [7, 15] | Plant response rating, Blackgrass [7, 16] | Plant response rating, Corn (corn (Zea mays); [15]) | Plant response rating, Corn (corn (Zea mays); [16]) | Foxtail, Giant plant response rating [8] | Plant response rating, Foxtail, Giant ([8]; 500 g ai/ha) | Pigweed plant response rating [9] | Plant response rating, Pigweed ([9]; 500 g ai/ha) | further results
Cc1cc(C2CC2)c(NS(=O)(=O)C(F)(F)F)cc1C(=O)N1CCOCC1 [Compound 13] | 20 | 30 | 0 | 0 | 60 | 100 | 0 | 10 | 20 | 30 | 0 | 40 | 0 | 0 | 0 | 0 | 0 | 10 | 20 | 60 | Plant response rating, Ragweed [10, 15]: 10; Plant response rating, Ragweed [10, 16]: 30; Plant response rating, Foxtail, Giant [11, 15]: 0; Plant response rating, Foxtail, Giant [11, 16]: 10; Plant response rating, Pigweed [12, 15]: 0; Plant response rating, Pigweed [12, 16]: 20; Kochia plant response rating (kochia (Bassia scoparia) [13]): 20; Plant response rating, Kochia (kochia (Bassia scoparia) [13]; 500 g ai/ha): 50; Plant response rating, Wheat [14, 15]: 0; Plant response rating, Wheat [14, 16]: 0
CCN(CC)C(=O)c1cc(NS(=O)(=O)C(F)(F)F)c(Cl)cc1C [Compound 21] | 50 | 60 | 0 | 50 | 80 | 100 | 10 | 30 | 30 | 100 | 20 | 40 | 10 | 10 | 0 | 30 | 20 | 100 | 40 | 60 | Plant response rating, Ragweed [10, 15]: 50; Plant response rating, Ragweed [10, 16]: 90; Plant response rating, Foxtail, Giant [11, 15]: 0; Plant response rating, Foxtail, Giant [11, 16]: 20; Plant response rating, Pigweed [12, 15]: 0; Plant response rating, Pigweed [12, 16]: 40; Kochia plant response rating (kochia (Bassia scoparia) [13]): 0; Plant response rating, Kochia (kochia (Bassia scoparia) [13]; 500 g ai/ha): 0; Plant response rating, Wheat [14, 15]: 0; Plant response rating, Wheat [14, 16]: 30
Cc1cc(C)c(N(S(=O)(=O)C(F)(F)F)S(=O)(=O)C(F)(F)F)cc1C(=O)N1CCSCC1 [Compound 5] |  |  |  |  |  |  |  |  |  |  |  |  |  |  |  |  |  |  |  |  | Plant response rating, Galium [1, 17]: 90; Plant response rating, Ryegrass, Italian [2, 17]: 30; Plant response rating, Barnyardgrass ([3]; 1000 g ai/ha): 100; Plant response rating, Kochia (kochia (Bassia scoparia) [4]; [17]): 80; Plant response rating, Ryegrass, Italian ([5]; 1000 g ai/ha): 100; Plant response rating, Barnyardgrass [6, 17]: 80; Plant response rating, Blackgrass [7, 17]: 0; Plant response rating, Corn (corn (Zea mays); [17]): 10; Plant response rating, Foxtail, Giant ([8]; 1000 g ai/ha): 100; Plant response rating, Pigweed ([9]; 1000 g ai/ha): 100; Plant response rating, Ragweed [10, 17]: 80; Plant response rating, Foxtail, Giant [11, 17]: 90; Plant response rating, Pigweed [12, 17]: 80; Plant response rating, Kochia (kochia (Bassia scoparia) [13]; 1000 g ai/ha): 90; Plant response rating, Wheat [14, 17]: 60
